Experimental data taken from US10640495B2, “Heterocycle derivatives having TrkA inhibitory activity” (Shionogi & Co., Ltd., priority 2015, dated 2020).
Like-named read-outs stand apart in the source and are kept apart here. Blank lines part the entries; values can stand above or below the compound they belong to.

Biological target: human TrkA (Homo sapiens (Human), UniProt P04629)
Assay: Human TrkA inhibition assay (Test Example 2)
Format: biochemical
Protocol: Seven point five μL per well of human TrkA (PV3144, Lifetechnologies, final concentration: 1 nmol/L) suspended in the assay buffer (100 mmol/L 4-(2-hydroxyethyl)-1-piperazineethanesulfonic acid (HEPES), 10 mmol/L magnecium chloride, 0.003 vol % Brij-35, 0.004 vol % Tween20 and 1 mmol/L dithiothreitol (DTT)) was applied in a 384 well plate and the plate was pre-incubated for 15 min at room temperature with 0.4 μL of each compound (final concentration: 200 μmol/L-1 pmol/L) dissolved in DMSO. Then, fluorescent substrate (FL-peptide 27, 760424, PerkinElmer, final concentration: 1.5 μmol/L) and ATP (final concentration 500 μmol/L) dissolved in the assay buffer was added in each well. After the incubation of 120 min at 37° C., fifteen μL of termination buffer (100 mmol/L HEPES, 40 mmol/L ethylenediaminetetraacetic acid (EDTA), 10 mmol/L magnecium chloride, 0.003 vol % Brij-35, 0.004 vol % Tween20, 1 mmol/L DTT and 0.16 vol % Coating Reagent 3) was added in each well to stop the enzyme reaction. Fluorescent intensities (FI) of phosphorylated and non-phosphorylated fluorescent substrates were measured by LabChip EZReader II (Caliper LifeSciences, Inc.), and conversion ratio (CR) was calculated by the following formula-1. The CR in the well applied with DMSO alone was used as a negative control and the CR in the well without applying TrkA was used as a positive control. The inhibitory effect of each compound on TrkA phosphorylation was calculated by the following formula-2. CR (%)=(FI of phosphorylated substrate/(FI of phosphorylated substrate+FI of non-phosphorylated substrate))×100 (Formula-1) Phosphorylation inhibition (%)=(1−(CR with compound treatment−CR of positive control)/(CR of negative control−CR of positive control))×100 (Formula-2)
IC50 values (nmol/L) were determined by the logistic regression using the inhibition data in 10 points of 3-fold dilution series at a compound concentration range of 20 nmol/L to 1 pmol/L, or 10 points of 3-fold dilution series at the range of 2 μmol/L to 0.1 nmol/L, or 10 points of 3-fold dilution series at the range of 200 μmol/L to 10 nmol/L, or 15 points of 3-fold dilution series at the range of 200 μmol/L to 0.04 nmol/L.
The evaluation results of the compounds in the present invention are indicated as follows. IC50 values of 0 to 100 nM, 100 to 1000 nM and over 1000 nM were shown as “A”, “B” and “C”, respectively.

[1] = Table 154, human TrkA inhibition, read-out: IC50
[2] = Table 155, human TrkA inhibition, read-out: IC50
[3] = Table 153, human TrkA inhibition, read-out: IC50
[4] = Table 157, human TrkA inhibition, read-out: IC50
[5] = Table 156, human TrkA inhibition, read-out: IC50
[6] = human TrkA 1 nmol/L, ATP 500 μmol/L, 120 min at 37° C., read-out: IC50 values (TrkA phosphorylation inhibition)

Chain of human TrkA (P04629 440-796): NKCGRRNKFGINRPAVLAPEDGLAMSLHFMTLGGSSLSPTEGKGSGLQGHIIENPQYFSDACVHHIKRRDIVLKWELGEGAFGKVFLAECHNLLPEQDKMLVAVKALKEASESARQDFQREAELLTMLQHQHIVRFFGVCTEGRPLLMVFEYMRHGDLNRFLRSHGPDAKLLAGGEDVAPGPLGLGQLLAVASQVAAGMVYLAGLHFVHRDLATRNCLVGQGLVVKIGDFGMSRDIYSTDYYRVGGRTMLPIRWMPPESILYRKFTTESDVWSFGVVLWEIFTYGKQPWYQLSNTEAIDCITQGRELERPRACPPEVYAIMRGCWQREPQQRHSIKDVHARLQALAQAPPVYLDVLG

Structure (SMILES): COCCN1C[C@H](NC(=O)Nc2c(C)c(-c3cnc(OC)nc3)nn2-c2ccccc2)[C@@H](c2cnc(F)c(F)c2)O1 [Compound I-263]
IC50 [1]: 100 to 1000 nM

Structure (SMILES): COCCN1C[C@@H](NC(=O)Nc2c(C)c(-c3cnc4c(c3)CN(Cc3ccccc3)CC4)nn2-c2ccccc2)[C@H](c2ccnc(F)c2)O1 (racemic) [Compound I-428]
IC50 [2]: < 100 nM

Structure (SMILES): COCCN1C[C@@H](NC(=O)Nc2c(C)c(C3=CCN(c4ncc(Cl)cn4)CC3)nn2-c2ccccc2)[C@H](c2ccc(F)c(F)c2)O1 (racemic) [Compound I-153]
IC50 [3]: < 100 nM

Structure (SMILES): COCC[C@@H]1C[C@@H](NC(=O)Nc2c(C)c(C3=CCNCC3)nn2-c2ccccc2)[C@H](c2ccc(F)c(F)c2)O1 (racemic) [Compound I-55]
IC50 [3]: < 100 nM

Structure (SMILES): COCCN1C[C@@H](NC(=O)Nc2c(C)c(-c3cnc4c(c3)c(N3CCCC3)nn4C)nn2-c2ccccc2)[C@H](c2ccnc(F)c2)O1 (racemic) [Compound I-491]
IC50 [2]: < 100 nM

Structure (SMILES): CCN1C[C@@H](NC(=O)Nc2c(C)c(OCCCC(=O)N3CCN(C)CC3)nn2-c2ccccc2)[C@H](c2ccc(F)c(F)c2)O1 (racemic) [Compound I-666]
IC50 [4]: < 100 nM

Structure (SMILES): CNC(=O)c1cc(-c2nn(-c3ccccc3)c(NC(=O)N[C@@H]3CN(CC(F)F)O[C@H]3c3ccc(F)c(F)c3)c2C)cnc1OC (racemic) [Compound I-551]
IC50 [5]: < 100 nM

Structure (SMILES): COCCN1C[C@@H](NC(=O)Nc2c(C)c(-c3cnc(N4CCN(C)CC4)nc3)nn2-c2ccccc2)[C@H](c2ccc(F)c(F)c2)O1 [Compound I-598]
IC50 [4]: < 100 nM

Structure (SMILES): COCCN1C[C@@H](NC(=O)Nc2c(C)c(-c3cnc4c(c3)OCCO4)nn2-c2ccccc2)[C@H](c2cnc(F)c(F)c2)O1 (racemic) [Compound I-462]
IC50 [2]: < 100 nM

Structure (SMILES): COCC[C@@H]1C[C@@H](NC(=O)Nc2c(C)c(-c3cnn(C)c3)nn2-c2ccccc2)[C@H](c2ccnc(F)c2)O1 [Compound I-235]
IC50 [1]: < 100 nM

Structure (SMILES): COCCN1C[C@@H](NC(=O)Nc2c(C)c(-c3cnc4c(cnn4C)c3)nn2-c2ccc(F)cc2)[C@H](c2ccc(F)c(F)c2)O1 (racemic) [Compound I-174]
IC50 [3]: < 100 nM

Structure (SMILES): CCN1C[C@@H](NC(=O)Nc2c(C)c(-c3cnc4c(c3)OCCO4)nn2-c2ccccc2)[C@H](c2ccc(F)c(F)c2)O1 (racemic) [Compound I-626]
IC50 [4]: < 100 nM

Structure (SMILES): CC(=O)N1CCC(COc2nn(-c3ccccc3)c(NC(=O)N[C@@H]3CN(CCF)O[C@H]3c3ccc(F)c(F)c3)c2C)CC1 (racemic) [Compound I-564]
IC50 [5]: < 100 nM

Structure (SMILES): CCN1C[C@@H](NC(=O)Nc2c(C)c(-c3cc(C(=O)NC)c(=O)n(C)c3)nn2-c2ccccc2)[C@H](c2ccc(F)c(F)c2)O1 (racemic) [Compound I-148]
IC50 [3]: < 100 nM

Structure (SMILES): CCN1C[C@@H](NC(=O)Nc2c(C)c(OCCCC(=O)NCC(C)(C)O)nn2-c2ccccc2)[C@H](c2ccc(F)c(F)c2)O1 (racemic) [Compound I-669]
IC50 [4]: < 100 nM

Structure (SMILES): COCC[C@@H]1C[C@@H](NC(=O)Nc2c(C)c(C3=CCN(C(=O)CO)CC3)nn2-c2ccccc2)[C@H](c2ccc(F)c(F)c2)O1 [Compound I-59]
IC50 [3]: < 100 nM

Structure (SMILES): COCCN1C[C@@H](NC(=O)Nc2c(C)c(-c3cncc(N=S(C)(C)=O)c3)nn2-c2ccccc2)[C@H](c2ccc(F)c(F)c2)O1 (racemic) [Compound I-85]
IC50 [3]: < 100 nM

Structure (SMILES): COc1ncc(-c2nn(-c3ccccc3)c(NC(=O)N[C@@H]3CN(CCC(F)(F)F)O[C@H]3c3ccc(F)c(F)c3)c2C)cn1 (racemic) [Compound I-621]
IC50 [4]: > 1000 nM

Structure (SMILES): COCCN1C[C@@H](NC(=O)Nc2c(C)c(-c3cnc(N4CCC(N(C)C)CC4)nc3)nn2-c2ccccc2)[C@H](c2ccnc(F)c2)O1 (racemic) [Compound I-532]
IC50 [5]: < 100 nM

Structure (SMILES): COCC[C@@H]1C[C@@H](NC(=O)Nc2c(C)c(-c3cc(C)c(=O)n(C)c3)nn2-c2ccccc2)[C@H](c2ccnc(F)c2)O1 [Compound I-288]
IC50 [1]: < 100 nM

Structure (SMILES): COCCN1C[C@@H](NC(=O)Nc2c(C)c(-c3cnc(OC4CCN(C)CC4)nc3)nn2-c2ccccc2)[C@H](c2ccc(F)c(F)c2)O1 [Compound I-464]
IC50 [2]: < 100 nM

Structure (SMILES): COCCN1C[C@@H](NC(=O)Nc2c(C)c(-c3cnc4c(c3)CN(C)C4=O)nn2-c2ccccc2)[C@H](c2ccc(F)cc2)O1 [Compound I-411]
IC50 [2]: < 100 nM

Structure (SMILES): CNC(=O)c1cc(-c2nn(-c3ccccc3)c(NC(=O)N[C@@H]3CN(Cc4ccc(C#N)o4)O[C@H]3c3ccc(F)c(F)c3)c2C)cn(C)c1=O (racemic) [Compound I-150]
IC50 [3]: < 100 nM

Structure (SMILES): COCCN1C[C@@H](NC(=O)Nc2c(C)c(-c3ccc(CN(C)C)nc3)nn2-c2ccccc2)[C@H](c2ccc(F)c(F)c2)O1 [Compound I-638]
IC50 [6]: 1.4 nM

Now from value to compound:

IC50 [3]: > 1000 nM
Structure (SMILES): CCOc1ncc(-c2nn(-c3ccccc3)c(NC(=O)N[C@H]3CN(CCOC)O[C@@H]3c3ccnc(F)c3)c2C)cn1 [Compound I-130]

IC50 [2]: < 100 nM
Structure (SMILES): COCCN1C[C@@H](NC(=O)Nc2c(C)c(-c3cnc(OC)c(OC)c3)nn2-c2ccccc2)[C@H](c2ccnc(F)c2)O1 (racemic) [Compound I-366]

IC50 [1]: < 100 nM
Structure (SMILES): COCCN1C[C@@H](NC(=O)Nc2c(C)c(-c3ccc(C(=O)OC)nc3)nn2-c2ccccc2)[C@H](c2ccc(F)c(F)c2)O1 (racemic) [Compound I-199]

IC50 [2]: < 100 nM
Structure (SMILES): COCCN1C[C@@H](NC(=O)Nc2c(C)c(-c3cnc(OC(CF)CF)nc3)nn2-c2ccccc2)[C@H](c2ccnc(F)c2)O1 (racemic) [Compound I-478]

IC50 [2]: < 100 nM
Structure (SMILES): CNC(=O)c1ncc(-c2nn(-c3ccccc3)c(NC(=O)N[C@@H]3CN(CCOC)O[C@H]3c3ccnc(F)c3)c2C)cc1CF (racemic) [Compound I-437]

IC50 [3]: < 100 nM
Structure (SMILES): CNc1ncc(-c2nn(-c3ccccc3)c(NC(=O)N[C@@H]3CN(CCOC)O[C@H]3c3ccnc(F)c3)c2C)cn1 (racemic) [Compound I-93]

IC50 [2]: < 100 nM
Structure (SMILES): COCCN1C[C@@H](NC(=O)Nc2c(C)c(-c3cnc4c(c3)ncn4CC(=O)N(C)C)nn2-c2ccccc2)[C@H](c2ccnc(F)c2)O1 (racemic) [Compound I-402]

IC50 [4]: < 100 nM
Structure (SMILES): COCCN1C[C@@H](NC(=O)Nc2c(C)c(-c3cnc(N(C)CCCN(C)C)nc3)nn2-c2ccccc2)[C@H](c2ccnc(F)c2)O1 (racemic) [Compound I-589]

IC50 [6]: 0.52 nM
Structure (SMILES): CNC(=O)c1ccc(-c2nn(-c3ccccc3)c(NC(=O)N[C@@H]3CN(CCOC)O[C@H]3c3ccc(F)c(F)c3)c2C)cn1 [Compound I-458]

IC50 [3]: < 100 nM
Structure (SMILES): CNC(=O)c1cc(-c2nn(-c3ccccc3)c(NC(=O)N[C@@H]3CN(CCOC)O[C@H]3c3ccc(F)c(F)c3)c2C)cn(C)c1=O (racemic) [Compound I-147]

IC50 [6]: 2.1 nM
Structure (SMILES): COCCN1C[C@@H](NC(=O)Nc2c(C)c(-c3ccnc(C(=O)O)c3)nn2-c2ccccc2)[C@H](c2ccc(F)c(F)c2)O1 (racemic) [Compound I-190]

IC50 [2]: < 100 nM
Structure (SMILES): COCCN1C[C@@H](NC(=O)Nc2c(C)c(-n3cnc(C)c3)nn2-c2ccccc2)[C@H](c2ccnc(F)c2)O1 (racemic) [Compound I-346]

IC50 [3]: < 100 nM
Structure (SMILES): COCCN1C[C@@H](NC(=O)Nc2c(C)c(-c3cnc(OC)c(C(N)=O)c3)nn2-c2ccccc2)[C@H](c2ccnc(F)c2)O1 (racemic) [Compound I-109]

IC50 [1]: < 100 nM
Structure (SMILES): COCCN1C[C@@H](NC(=O)Nc2c(C)c(-c3cnc4c(c3)NCCO4)nn2-c2ccccc2)[C@H](c2ccnc(F)c2)O1 (racemic) [Compound I-306]

IC50 [6]: 30 nM
Structure (SMILES): COCCN1C[C@@H](c2ccnc(F)c2)[C@H](NC(=O)Nc2c(C)c(-c3cnn(C)c3)nn2-c2ccccc2)O1 (racemic) [Compound I-136]

IC50 [2]: < 100 nM
Structure (SMILES): COCCN1C[C@@H](NC(=O)Nc2c(C)c(-c3cnc(N4CCNCC4)nc3)nn2-c2ccccc2)[C@H](c2ccnc(F)c2)O1 (racemic) [Compound I-414]

IC50 [2]: < 100 nM
Structure (SMILES): COCCN1C[C@@H](NC(=O)Nc2c(C)c(-c3cnc(N4CC(C)(O)C4)nc3)nn2-c2ccccc2)[C@H](c2ccnc(F)c2)O1 (racemic) [Compound I-479]

IC50 [2]: < 100 nM
Structure (SMILES): CNC(=O)c1nn(-c2ccccc2)c(NC(=O)N[C@@H]2CN(CCOC)O[C@H]2c2ccnc(F)c2)c1C (racemic) [Compound I-384]

IC50 [3]: < 100 nM
Structure (SMILES): CNC(=O)c1cc(-c2nn(-c3ccccc3)c(NC(=O)N[C@@H]3CN(CCOC)O[C@H]3c3ccc(F)cc3)c2C)cn(C)c1=O (racemic) [Compound I-138]

IC50 [2]: < 100 nM
Structure (SMILES): COCCN1C[C@@H](NC(=O)Nc2c(C)c(-c3cnc(Br)nc3)nn2-c2ccccc2)[C@H](c2ccnc(F)c2)O1 (racemic) [Compound I-433]
